Experimental data: article PMC9542104, “Druggability Evaluation of the Neuron Derived Orphan Receptor (NOR‐1) Reveals Inverse NOR‐1 Agonists” (Chemmedchem, 2022)
Where two headings read alike, the source gives them in different places.

How the values were obtained:
NOR‐1 = conditions: cited from earlier work
Gal4‐VP16 = target: T1, Gal4‐VP16 (Saccharomyces cerevisiae, UniProt P04386); assay: Gal4‐VP16 control reporter gene assay in HEK293T cells; format: cell-based; conditions: 100 μM
T1 construct: host or cells: HEK293T
T1 sequence (P04386 1-147, added parts left off): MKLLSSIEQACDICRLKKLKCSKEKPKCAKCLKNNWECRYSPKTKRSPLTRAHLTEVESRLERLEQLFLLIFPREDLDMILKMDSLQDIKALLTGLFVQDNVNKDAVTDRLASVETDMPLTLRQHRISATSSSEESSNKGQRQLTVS
From the text: To rapidly probe druggability of NOR‐1 and identify potential ligand scaffolds, we have established a robust reporter gene assay to monitor NOR‐1 activity and screened a medium size fragment library for NOR‐1 modulation. The screening assay was based on the Gal4 hybrid system[13] and employed a chimeric receptor composed of the human NOR‐1 LBD and the Gal4 DNA binding domain from yeast. Firefly luciferase under the control of five tandem repeats of the Gal4 response element served as reporter gene and constitutively expressed renilla luciferase was used for normalization and toxicity monitoring. Control experiments were conducted with the ligand‐independent transcriptional inducer Gal4‐VP16[14, 15] (replacing Gal4‐NOR‐1) to exclude non‐specific effects. The commercially available fragment screening library (core set of the Prestwick drug fragments library) comprised 480 compounds with favorable fragment properties (Figure 1a) and offered high structural diversity as illustrated by low average pairwise Jaccard‐Tanimoto similarity computed on Morgan fingerprints[16] (median 0.13; Figure 1b) and by a total of 77 unique Murcko scaffolds.[17] […]
Hybrid reporter gene assays. […] Luminescence was measured with a Spark 10 M luminometer (Tecan Group AG, Mannedorf, Switzerland), firefly luciferase data were divided by Renilla luciferase data and multiplied by 1000 to obtain relative light units (RLU). […]

[1] = target: T2, Gal4‐NOR‐1 (human NOR‐1 LBD) (Homo sapiens, UniProt Q92570); assay: Gal4 hybrid reporter gene assay for NOR‐1 activity in HEK293T cells; format: cell-based; conditions: for type of NOR‐1 modulation: Gal4‐NOR‐1; for IC50: read-out: IC50 (NOR‐1), inverse agonism; for remaining NOR‐1 activity: Gal4‐NOR‐1, remaining activity at maximum inverse agonist effect; for activity on NOR‐1 / NOR‐1 activity: Gal4‐NOR‐1, 100 μM
T2 construct: coding for the hinge region and LBD of the canonical isoform of NOR‐1; expressed in transfected cells; host or cells: HEK293T
T2 sequence (Q92570 394-623 limits assumed): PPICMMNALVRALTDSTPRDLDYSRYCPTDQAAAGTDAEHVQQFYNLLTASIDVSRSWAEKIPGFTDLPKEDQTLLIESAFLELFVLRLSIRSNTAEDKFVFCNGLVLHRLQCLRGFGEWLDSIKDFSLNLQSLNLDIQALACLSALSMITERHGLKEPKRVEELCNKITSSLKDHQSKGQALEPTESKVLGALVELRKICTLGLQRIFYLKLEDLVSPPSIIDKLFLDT
Method: The screening assay was based on the Gal4 hybrid system[13] and employed a chimeric receptor composed of the human NOR‐1 LBD and the Gal4 DNA binding domain from yeast. Firefly luciferase under the control of five tandem repeats of the Gal4 response element served as reporter gene and constitutively expressed renilla luciferase was used for normalization and toxicity monitoring. Control experiments were conducted with the ligand‐independent transcriptional inducer Gal4‐VP16[14, 15] (replacing Gal4‐NOR‐1) to exclude non‐specific effects.
Hybrid reporter gene assays. The reporter gene assay was performed as reported previously[25] in HEK293T cells in 96‐well format using pFR‐Luc (Stratagene, La Jolla, CA, USA; reporter), pRL‐SV40 (Promega, Madison, WI, USA; control) and the Gal4‐NOR‐1 fusion receptor plasmid pFA‐CMV‐hNOR‐1‐LBD coding for the hinge region and LBD of the canonical isoform of NOR‐1 or pECE‐SV40‐Gal4‐VP16[15] […] In the primary screening, the core set of the Prestwick Drug Fragments Library was tested at 100 μM in two biologically independent repeats. All other samples were tested in duplicates in at least three biologically independent repeats. Luminescence was measured with a Spark 10 M luminometer (Tecan Group AG, Mannedorf, Switzerland), firefly luciferase data were divided by Renilla luciferase data and multiplied by 1000 to obtain relative light units (RLU). Fold activation was obtained by dividing the mean RLU of a test compound at a respective concentration by the mean RLU of untreated control. Dose‐response curves were fitted with the equation “[Agonist]/[Inhibitor] vs. response (three parameters)” in GraphPad Prism (version 7.00, GraphPad Software, La Jolla, CA, USA).

[2] = test system: MYC mRNA expression in HeLa cells; format: cell-based; conditions: 16 h, 1 at 100 and 300 μM, 19 at 10 and 30 μM, GAPDH as reference gene, n=4
From the text: The following primers were used: GAPDH: fw: [NT].

[3] = target: T3, interaction of NOR‐1 with SMRT (Homo sapiens, UniProt Q92570); assay: Reporter gene assay for NOR‐1 interaction with SMRT in HEK293T cells; format: cell-based; conditions: n=3, read-out: IC50, antagonism of NOR‐1 interaction with SMRT
T3 construct: coding for the hinge region and LBD of the canonical isoform of NOR‐1; expressed in transfected cells; host or cells: HEK293T
T3 sequence (Q92570 394-623 limits assumed): T2 sequence (Q92570 394-623 limits assumed)
Method: (§1) Reporter gene assays for NOR‐1 interactions with NCoR1 and SMRT. The interaction of NOR‐1 with NCoR1 and SMRT was studied in reporter gene assays in HEK293T cells using pFR‐Luc, pRL‐SV40 and pFA‐CMV‐hNOR‐1‐LBD in combination with either pFTI‐CMV‐NCoR1 or pFTI‐CMV‐SMRT, which code for fusion proteins composed of the transcriptional inducer VP16 and fragments of the nuclear receptor co‐regulators NCoR1 or SMRT comprising one interaction motif.[29] […] After 24 h, the medium was changed to Opti‐MEM without supplements and the cells were transiently transfected with above‐described plasmids using Lipofectamine LTX reagent (Invitrogen). […] After 16 h incubation, cells were assayed for luciferase activity using the Dual‐Glo Luciferase Assay System (Promega) and luminescence was measured with a Spark 10 M luminometer (Tecan Group Ltd). Each sample was tested in duplicates in three independent experiments. Firefly luciferase data were divided by renilla luciferase data to obtain relative light units (RLU) and RLU of each test sample were normalized to the negative control (0.1 % DMSO).

[4] = target: T4, interaction of NOR‐1 with NCoR1 (Homo sapiens, UniProt Q92570); assay: Reporter gene assay for NOR‐1 interaction with NCoR1 in HEK293T cells; format: cell-based; conditions: n=3, read-out: IC50, antagonism of NOR‐1 interaction with NCoR1
T4 construct: coding for the hinge region and LBD of the canonical isoform of NOR‐1; expressed in transfected cells; host or cells: HEK293T
T4 sequence (Q92570 394-623 limits assumed): T2 sequence (Q92570 394-623 limits assumed)
Method: as §1

Compound: Sc1ncnc2nc[nH]c12 [6‐mercaptopurine]
- binding to the NOR‐1 ligand binding domain (LBD) (NOR‐1): does not bind
- effect on NOR‐1 activity (NOR‐1; requires the N‐terminal AF‐1 of NOR‐1): enhanced NOR‐1 activity

Compound: COC(=O)c1c[nH]c2ccccc12 [compound 1]
- effect on Gal4‐VP16 induced reporter activity (Gal4‐VP16): no suppression
- type of NOR‐1 modulation [1]: inverse agonist
- IC50 ([1]; Gal4‐NOR‐1, HEK293T cells, n=4): 47 ± 8 µM
- remaining NOR‐1 activity ([1]; n=4): 47±6%
- effect on MYC expression [2]: induced MYC expression

Compound: CC(=O)N1CCN(c2ccc(O)cc2)CC1 [compound 2]
- effect on Gal4‐VP16 induced reporter activity (Gal4‐VP16): no suppression
- type of NOR‐1 modulation [1]: inverse agonist
- IC50 ([1]; Gal4‐NOR‐1, HEK293T cells, n=4): 73 µM
- remaining NOR‐1 activity ([1]; n=4): 64±7%

Compound: O=C(O)CCc1ccc(Cl)cc1 [compound 3]
- type of NOR‐1 modulation [1]: agonist
- EC50 ([1]; Gal4‐NOR‐1, HEK293T cells, n=4, read-out: EC50 (NOR‐1), agonism): 44 ± 6 µM
- max. activation of NOR‐1 ([1]; Gal4‐NOR‐1, n=4): 132±4%
- effect of added inverse agonist 1 on the EC50 value of 3 (competition experiment) ([1]; fixed concentration of 1 (100 μM), n=3): did not affect the EC50 value

Compound: Oc1ccc(N2CCNCC2)cc1 [compound 4]
- activity on NOR‐1 [1]: inactive (100 μM)

Compound: CC(=O)N1CCN(c2ccccc2)CC1 [compound 5]
- NOR‐1 activity ([1]; n=4): 93±1 % NOR‐1 activity (100 μM)

Compound: Clc1ccc(N2CCNCC2)cc1 [compound 6, 4‐chlorophenylpiperazine]
- type of NOR‐1 modulation [1]: weak agonists
- NOR‐1 activity ([1]; n=4): 120±6 % NOR‐1 activity (100 μM)

Compound: Nc1ccc(N2CCNCC2)cc1 [compound 8, 4‐aminophenylpiperazine]
- type of NOR‐1 modulation [1]: weak agonists
- NOR‐1 activity ([1]; n=4): 124±2 % NOR‐1 activity (100 μM)

Compound: COc1ccc(N2CCNCC2)cc1 [compound 9, 4‐Methoxyphenylpiperazine]
- activity on NOR‐1 [1]: inactive (100 μM)

Compound: CN1CCN(c2ccc(N)cc2)CC1 [compound 10]
- activity on NOR‐1 [1]: inactive (100 μM)

Compound: COC(=O)c1cn(-c2ccccc2)c2ccccc12 [compound 11]
- activity on NOR‐1 [1]: inactive

Compound: COC(=O)c1c(Cl)[nH]c2ccccc12 [compound 12]
- IC50 ([1]; Gal4‐NOR‐1, HEK293T cells, n=4): > 100 µM

Compound: COC(=O)c1c[nH]c2cccc(Cl)c12 [compound 13]
- IC50 ([1]; Gal4‐NOR‐1, HEK293T cells, n=4): > 100 µM

Compound: COC(=O)c1c[nH]c2ccc(Cl)cc12 [compound 14]
- IC50 ([1]; Gal4‐NOR‐1, HEK293T cells, n=4): 14 ± 2 µM
- remaining NOR‐1 activity ([1]; n=4): 12±4%
- improvement in inverse NOR‐1 agonist potency ([1]; versus lead 1): 3.5 fold

Compound: COC(=O)c1c[nH]c2cc(Cl)ccc12 [compound 15]
- IC50 ([1]; Gal4‐NOR‐1, HEK293T cells, n=4): > 100 µM

Compound: COC(=O)c1c[nH]c2c(Cl)cccc12 [compound 16]
- IC50 ([1]; Gal4‐NOR‐1, HEK293T cells, n=4): > 100 µM

Compound: COC(=O)c1c[nH]c2ccc(C)cc12 [compound 17]
- IC50 ([1]; Gal4‐NOR‐1, HEK293T cells, n=4): 35 ± 8 µM
- remaining NOR‐1 activity ([1]; n=4): 2±7%

Compound: COC(=O)c1c[nH]c2ccc(OC)cc12 [compound 18]
- IC50 ([1]; Gal4‐NOR‐1, HEK293T cells, n=4): 43 ± 5 µM
- remaining NOR‐1 activity ([1]; n=4): 13±4%

Compound: COC(=O)c1c[nH]c2ccc(Br)cc12 [compound 19, Methyl 5‐bromoindole‐3‐carboxylate]
- IC50 [3]: 9 ± 2 µM
- IC50 ([1]; Gal4‐NOR‐1, HEK293T cells, n=4): 8 ± 1 µM
- remaining NOR‐1 activity ([1]; n=4): 7±3%
- IC50 [4]: 12 ± 3 µM
- effect on MYC expression [2]: induced MYC expression

Compound: COC(=O)c1c[nH]c2ccc(-c3ccccc3)cc12 [compound 20]
- IC50 ([1]; Gal4‐NOR‐1, HEK293T cells, n=4): 4 ± 2 µM
- remaining NOR‐1 activity ([1]; n=4): 49±5%

Compound: CCCCC[C@H](O)/C=C/[C@H]1C=CC(=O)[C@@H]1C/C=C\CCCC(=O)O [prostaglandin A2]
- effect on NOR‐1 activity (NOR‐1; through direct interaction with its LBD): weakly activates NOR‐1
